The text below walks through data of US4482551A, “Cephalosporin derivatives” (Hoffmann-La Roche Inc., priority 1982, dated 1984).

One series has as its system Serratia marcescens. In words: Activity in vitro: Minimum inhibitory concentration. The format is cell-based. Conditions: read-out: Minimum inhibitory concentration. The source says:
(§1) Activity in vitro: Minimum inhibitory concentration

A further series deals with Staphylococcus aureus. The series is described as above. The format is cell-based. The note with it: read-out: Minimum inhibitory concentration.
Text: as §1

Series [1] concerns Pseudomonas aeruginosa strain 2. Described as above. The format is cell-based.
Text: as §1

In a further series the test system is Escherichia coli. The series is described as above. The format is cell-based. The note with it: read-out: Minimum inhibitory concentration.
Text: as §1

Series [2] relates to Pseudomonas aeruginosa strain 1. Described as above. The format is cell-based.
Text: as §1

A further series has as its system Proteus mirabilis. Described as above. The note with it: read-out: Minimum inhibitory concentration. The format is cell-based.
Text: as §1

The test system of the next series is Enterobacter cloacae. The description is as above. The format is cell-based. The note with it: read-out: Minimum inhibitory concentration.
Text: as §1

For the next series, the system named is Proteus vulgaris. The series is described as above. The note with it: read-out: Minimum inhibitory concentration. The format is cell-based.
Text: as §1

For a further series, the system named is Neisseria gonorrhoeae. Described as above. The format is cell-based. The note with it: read-out: Minimum inhibitory concentration.
Text: as §1

The subject of another series is Haemophilus influenzae. The series is described as above. The note with it: read-out: Minimum inhibitory concentration. The format is cell-based.
Text: as §1

A further series is described as follows: Toxicity (LD100). The format is in vivo.
The mark [3] stands for this setting: in vitro, lactamase forming strain.

Counter-ions that a name gives are not always drawn. Like-named read-outs stand apart in the source and are kept apart here.

For the compound `CO/N=C(\C(=O)N[C@@H]1C(=O)N2C(C(=O)[O-])=C(CSc3nc(=O)cnn3C)CS[C@H]12)c1csc(N)n1.[Na+]`, the MIC with Serratia marcescens came to 0.16 µg/mL; in the series with Staphylococcus aureus, 2.5 µg/mL; in series [1] (Pseudomonas aeruginosa, 2, read-out: Minimum inhibitory concentration) it was 40 µg/mL; in the series with Escherichia coli, 0.04 µg/mL; in series [2] (Pseudomonas aeruginosa, 1, read-out: Minimum inhibitory concentration), 40 µg/mL; with Proteus mirabilis, 0.04 µg/mL. For the same compound, the MIC with Enterobacter cloacae came out at 2.5 µg/mL; in the series with Proteus vulgaris, 0.02 µg/mL; with Neisseria gonorrhoeae, 0.02 µg/mL; with Haemophilus influenzae it was 0.02 µg/mL. Further, the LD100 is 1000 mg/kg in the series “Toxicity (LD100)” (i.v.), above 5000 mg/kg in the series “Toxicity (LD100)” (p.o.) and above 5000 mg/kg in the series “Toxicity (LD100)” (s.c.).

For `CO/N=C(\C(=O)N[C@@H]1C(=O)N2C(C(=O)O)=C(CSc3nc(=O)c(C)nn3C)CS[C@H]12)c1csc(N)n1` [Product B, (6R,7R)-7-[2-(2-amino-4-thiazolyl-2-[(Z)-methoxyimino]acetamido]-3-[[(2,5-dihydro-2,6-dimethyl-5-oxo-as-triazin-3-yl)thio]methyl]-8-oxo-5-thia-1-azabicyclo[4.2.0]oct-2-ene-2-carboxylic acid sodium salt], the MIC stood at 0.32 µg/mL in the series with Serratia marcescens (setting [3]); 2.5 µg/mL in the series on Staphylococcus aureus (in vitro); 80 µg/mL in series [1] (in vitro, Pseudomonas aeruginosa strain 2, lactamase forming strain, read-out: Minimum inhibitory concentration); 0.08 µg/mL in the series with Escherichia coli (setting [3]); 80 µg/mL in [2] (in vitro, Pseudomonas aeruginosa strain 1, lactamase forming strain, read-out: Minimum inhibitory concentration); 0.08 µg/mL with Proteus mirabilis (setting [3]). In addition, the MIC in the series with Enterobacter cloacae (setting [3]) came out at 2.5 µg/mL; in the series with Proteus vulgaris (setting [3]), 0.02 µg/mL; with Neisseria gonorrhoeae (in vitro), 0.02 µg/mL; in the series on Haemophilus influenzae (in vitro) it was 0.02 µg/mL. Moreover, the LD100 is reported as 500 mg/kg in the series “Toxicity (LD100)” (i.v.), above 5000 mg/kg in the series “Toxicity (LD100)” (p.o.) and above 4000 mg/kg in the series “Toxicity (LD100)” (s.c.).
